Laboratory results: publication PMC3706879, “The neurotrophic compound J147 reverses cognitive impairment in aged Alzheimer's disease mice” (Alzheimer's Research & Therapy, 2013)
Where “and” joins values, the source holds several entries; their conditions need not be identical. Equal values may be shown once.

Assays:
HT22 cells = conditions: 10 μM J147, one hour
Method: HT22 cells were plated in DMEM plus 10% FCS. The next day, the cells were treated with 10 μM J147 for 1 hr before RNA isolation.
RNA was isolated with the use of RNeasy Mini kit (Qiagen, #74104; Valencia, CA, USA) according to the manufacturer's instructions. Total RNA was quantified using the ND-1000 Nanodrop and assessed for quality using the ratios: A260/280 (range: 1.9 to 2.1) and A260/230 (range: 2.0 to 2.2, if <2.0, contamination), in addition to the Bioanalyzer (Agilent Technologies, Cedar Creek, TX, USA) if further quality assessment was required.
After RNA isolation for each sample, double stranded cDNA was synthesized from 500 ng total RNA and biotin-labeled using the GeneChip 3' IVT Express Kit (Affymetrix, Santa Clara, CA, USA, #901228-A) per the manufacturer's instructions and protocol. RNA was purified, quantified, fragmented randomly to an average size of 50 to 200 bases and hybridized to GeneChip® Mouse Genome 430 2.0 Arrays (Affymetrix,) consisting of over 45,000 probe sets representing more than 34,000 named mouse genes. The hybridization and processing of the GeneChips were conducted by Salk Institute's Functional Genomics Core Facility using the following systems from Affymetrix (Santa Clara, CA, USA): GeneChip® Hybridization Oven 640, GeneChip® Fluidics Station 450 to the wash and stain operation of Affymetrix GeneChip® arrays, and the GeneChip® Scanner 3000 7G.
Affymetrix Expression Console Software (version 1.0) was used to perform quality assessment of the microarray scan/experiments. Array data were normalized via scaling to adjust the average intensity of each array to be similar. GeneChips were analyzed by the GeneChip Operating Software (Affymetrix) with the default settings except that the target signal was set to 200 for GeneChip quality control. Raw data were analyzed through the gcRMA-algorithm using the Affymetrix package in R software for statistical computing and graphics. The median microarray intensity for all microarrays was normalized to 100, and probe sets with median intensities >100 were scored. Fold changes were calculated in Microsoft Excel Microsoft, Redmond, Washington, USA). Genes of interest and genes with the highest fold-changes were validated using Real-Time Quantitative PCR. The data discussed in this publication have been deposited in NCBI's Gene Expression Omnibus and are accessible through GEO Series accession number GSE45534 [26].

Rats = experiment: acute toxicity in rats (Absorption Systems); assay type: in vivo; conditions: 2 g/kg
Method: The pharmacokinetics of J147 in the mouse brain and plasma were evaluated using standard procedures. Blood and brain distribution of J147 following per oral (PO) administration was plotted for mice as a function of time (Figure 5). […] Additional de-risking and target identification screens were carried out at 10 μM J147 by various CROs (Table 2). […] All original data are available upon request.

APP/swePS1ΔE9 mice = test system: APP/swePS1ΔE9 mice; design: method as in PMID 22194796; conditions: cited from earlier work
neuroprotection assays = test system: neuroprotection assays; design: method as in PMID 22194796; conditions: cited from earlier work
huAPP/PS1 mice = experiment: two-day water maze in aged huAPP/PS1 mice; assay type: in vivo; conditions: 200 ppm in food for three months, vs AD control
Method: The APPswe/PS1ΔE9 transgenic mice have been previously characterized. The line 85 mice carry two transgenes, the mouse/human chimeric APP/Swe, linked to Swedish FAD and human PS1ΔE9. At 20 months of age both male and female transgenic mice were fed a high fat diet (Harlan Tekland, Madison, WI, USA) with and without J147 (200 ppm, 10 mg/kg/day). Treatment continued for three months and was followed by behavior testing and sacrifice of mice for tissue harvesting. […] (Data not shown).
Spatial memory was determined using the two-day water maze in 23-month-old huAPPswe/PS1 transgenic mice fed J147 at 200 ppm in food for the previous three months. The protocol was adapted from a publication by Gulinello and colleagues. Water temperature remained at 27°C throughout the experiment. The goal platform was positioned 45 cm from the outside wall in the north-west quadrant of the maze for all groups and all trials. Day 1 of the two-day water maze procedure involved training the mice to find the platform using cues located around the pool within a 180 s time frame. […] The time it took each mouse to find the hidden platform was measured as escape latency. […] All trials were recorded using the EthoVision Software and statistics were computed using GraphPad Instat software (GraphPad Software, San Diego, CA, USA).

hERG = hERG (Homo sapiens, UniProt Q12809)
C57BL/6J mice = experiment: two-day water maze, scopolamine induced memory impairment; assay type: in vivo; conditions: scopolamine 1 mg/kg i.p.; J147 200 ppm, donepezil 20 ppm in food for two weeks
Method: A total of 60 male mice aged eight weeks were housed 4 per cage and were divided into five groups with 12 mice per group. Treatments were administered in the food (TestDiet® 5015, Richmond, IN, USA) for a period of two weeks before commencement of behavioral testing. […] Following two weeks of treatment, memory impairment was induced by intraperitoneal (i.p.) injection of scopolamine (1 mg/kg) 30 minutes prior to each of the following behavioral tests: Y-maze, probe trial of the water maze and contextual and cued fear conditioning. Mice were allowed to rest for two days between each behavior test. All mice received scopolamine except for one of the control groups, which received saline as a control. Mice were sacrificed 24 hours after the last behavioral test for tissue harvesting.
Spatial memory was determined using the two-day water maze in 23-month-old huAPPswe/PS1 transgenic mice fed J147 at 200 ppm in food for the previous three months. The protocol was adapted from a publication by Gulinello and colleagues. Water temperature remained at 27°C throughout the experiment. […] The time it took each mouse to find the hidden platform was measured as escape latency. […] All trials were recorded using the EthoVision Software and statistics were computed using GraphPad Instat software (GraphPad Software, San Diego, CA, USA).

normal rodents = test system: normal rodents; design: method as in PMID 22194796; conditions: cited from earlier work
dopamine transporter = dopamine transporter (Homo sapiens, UniProt Q01959); experiment: dopamine transporter assay (MDS Pharma Services); assay type: binding
Method: All screening was done at 10 μM J147 by various contract research organizations (CROs), including MDS Pharma Services (King of Prussia, PA, USA), Ricerca, now Panlabs (Concord, OH, USA), Ambit (La Jolla, CA, USA), Caliper (Hopkinton, MA, USA) and NovaScreen Biosciences (Hanover, MD, USA) by standard protocols described in their catalogs.

Sequence of dopamine transporter (Q01959 whole entry): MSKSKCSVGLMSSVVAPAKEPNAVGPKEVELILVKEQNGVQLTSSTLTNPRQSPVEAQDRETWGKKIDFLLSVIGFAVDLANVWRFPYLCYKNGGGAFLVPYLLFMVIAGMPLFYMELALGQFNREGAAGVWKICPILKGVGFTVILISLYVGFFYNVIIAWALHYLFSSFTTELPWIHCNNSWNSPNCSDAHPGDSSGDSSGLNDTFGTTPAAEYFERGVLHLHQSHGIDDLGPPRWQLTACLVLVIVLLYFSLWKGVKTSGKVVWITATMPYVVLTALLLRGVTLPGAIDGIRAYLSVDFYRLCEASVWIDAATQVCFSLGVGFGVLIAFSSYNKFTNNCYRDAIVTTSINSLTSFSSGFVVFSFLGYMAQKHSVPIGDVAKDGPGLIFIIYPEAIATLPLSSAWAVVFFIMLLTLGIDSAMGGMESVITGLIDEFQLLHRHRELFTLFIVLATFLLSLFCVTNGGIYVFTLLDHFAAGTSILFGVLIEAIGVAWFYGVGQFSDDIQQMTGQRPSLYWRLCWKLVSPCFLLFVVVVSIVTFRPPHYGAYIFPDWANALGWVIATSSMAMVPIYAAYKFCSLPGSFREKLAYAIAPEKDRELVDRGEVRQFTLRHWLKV
Sequence of hERG (Q12809 whole entry): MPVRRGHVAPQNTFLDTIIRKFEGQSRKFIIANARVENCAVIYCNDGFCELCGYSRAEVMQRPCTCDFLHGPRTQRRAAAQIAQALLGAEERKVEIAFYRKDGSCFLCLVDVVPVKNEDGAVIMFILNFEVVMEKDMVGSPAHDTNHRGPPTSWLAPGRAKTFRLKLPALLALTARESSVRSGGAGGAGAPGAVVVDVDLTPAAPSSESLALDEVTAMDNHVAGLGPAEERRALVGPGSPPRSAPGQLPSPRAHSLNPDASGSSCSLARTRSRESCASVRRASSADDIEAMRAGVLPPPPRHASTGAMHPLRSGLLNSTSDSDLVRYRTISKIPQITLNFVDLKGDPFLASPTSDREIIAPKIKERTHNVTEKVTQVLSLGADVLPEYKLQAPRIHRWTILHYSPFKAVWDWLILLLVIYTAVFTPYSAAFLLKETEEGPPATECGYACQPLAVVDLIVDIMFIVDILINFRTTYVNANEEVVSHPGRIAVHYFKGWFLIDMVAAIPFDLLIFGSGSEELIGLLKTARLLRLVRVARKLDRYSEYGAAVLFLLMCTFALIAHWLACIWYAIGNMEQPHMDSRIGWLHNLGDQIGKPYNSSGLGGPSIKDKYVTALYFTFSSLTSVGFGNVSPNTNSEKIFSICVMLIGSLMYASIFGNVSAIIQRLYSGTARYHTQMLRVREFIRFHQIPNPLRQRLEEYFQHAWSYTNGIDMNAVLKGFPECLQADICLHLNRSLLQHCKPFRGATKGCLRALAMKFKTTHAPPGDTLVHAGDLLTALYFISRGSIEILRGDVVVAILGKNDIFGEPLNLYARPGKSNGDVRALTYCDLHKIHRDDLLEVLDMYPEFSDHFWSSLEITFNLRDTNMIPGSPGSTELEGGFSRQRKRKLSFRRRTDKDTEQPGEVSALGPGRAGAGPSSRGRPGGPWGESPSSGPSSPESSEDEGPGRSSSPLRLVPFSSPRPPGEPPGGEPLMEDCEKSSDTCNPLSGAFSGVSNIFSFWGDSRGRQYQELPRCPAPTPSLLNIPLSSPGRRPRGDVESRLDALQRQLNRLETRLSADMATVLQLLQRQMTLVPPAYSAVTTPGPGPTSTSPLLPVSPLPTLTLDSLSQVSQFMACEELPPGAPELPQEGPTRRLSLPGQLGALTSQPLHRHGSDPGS

COc1cccc(/C=N/N(C(=O)C(F)(F)F)c2ccc(C)cc2C)c1 [J147, (E)-N-(2,4-dimethylphenyl)-2,2,2-trifluoro-N'-(3methoxybenzyli-dene) acetohydrazide]
Fold change: J147 (1 hr) vs Control, Egr1 mRNA (HT22 cells): 2.5 fold
Fold change: J147 (1 hr) vs Control, Egr3 mRNA (HT22 cells): 8 fold and 8.0 fold
Fold change: J147 (1 hr) vs Control, Ngf mRNA (HT22 cells): 2.8 fold
Fold change: J147 (1 hr) vs Control, No title (chr8:13161324 to 13161817) (HT22 cells): 2.6 fold
Fold change: J147 (1 hr) vs Control, Spred2 mRNA (HT22 cells): 2.7 fold
acute toxicity (Rats): negative results
loss of synaptic proteins and cognitive decline (APP/swePS1ΔE9 mice; administered to three-month-old APP/swePS1ΔE9 mice for seven months): prevents the loss of synaptic proteins and cognitive decline
levels of BDNF in the hippocampus (APP/swePS1ΔE9 mice; huAPP/PS1 transgenic mice): increases the levels of BDNF
EC50 (neuroprotection assays): < 100 nM
spatial navigational memory (escape latency, hidden platform Day 2) (huAPP/PS1 mice): significantly improved the spatial navigational memory
hERG assay (hERG): negative
spatial memory (time to find hidden platform) (C57BL/6J mice): rescued this deficit in spatial memory
memory in normal rodents (normal rodents): facilitates memory in normal rodents
inhibition, dopamine transporter (dopamine transporter; 10 μM J147): greater than 60%
EC50 (dopamine transporter; dose response, re-assay after screening): 649 nM
